Here are results for two compounds from US11795181B2, “Basic copper gluconate” (JOST CHEMICAL CO., priority 2020, dated 2023).

SMILES strings stand for the structures.

Series [1] in a line: Aqueous solubility. The class given is physicochemical. The conditions noted are these: in water. From the text: However, at higher concentrations (i.e., 30% and above), solutions are prone to secondary redox reactions if left to sit for prolonged periods in the open air. Copper (II) slowly oxidizes gluconic acid producing a red precipitate of cuprous oxide (Cu2O). […] This is less evident in the 25% solution of basic copper gluconate than in the remaining, higher percentage, solutions.

For series [2] the following is noted: background statement; cited from earlier work.

As to `O=C([O][Cu][OH])C(O)C(O)C(O)C(O)CO` (centres unmarked) [Basic copper gluconate], in series [1], the water solubility entry is recorded as “over 50 g/100 g water”.

Regarding `O=C([O-])[C@H](O)[C@@H](O)[C@H](O)[C@H](O)CO.O=C([O-])[C@H](O)[C@@H](O)[C@H](O)[C@H](O)CO.[Cu+2]` [copper gluconate, Copper gluconate], the “aqueous solubility (in words)” value in series [2] was “excellent aqueous solubility”.
